Like-named read-outs stand apart in the source and are kept apart here.
Key:
[1] = test system: IGROV-1 (ovarian cancer); assay: NCI five-dose assay; assay type: cell-based; conditions: Homo sapiens
[2] = test system: RXF-393 (renal cancer); assay: NCI five-dose assay; assay type: cell-based; conditions: Homo sapiens
[3] = test system: HT29 (colon cancer); assay: NCI five-dose assay; assay type: cell-based; conditions: Homo sapiens, HT-29, HT29, colon cancer
[4] = test system: 786-0 (renal cancer); assay: NCI five-dose assay; assay type: cell-based; conditions: Homo sapiens, 786-0, 786-0, renal cancer
[5] = test system: T-47D (breast cancer); assay: NCI five-dose assay; assay type: cell-based; conditions: Homo sapiens, T47D
[6] = test system: NCI-H522 (NSCL cancer); assay: NCI five-dose assay; assay type: cell-based; conditions: Homo sapiens
[7] = test system: EKVX (NSCL cancer); assay: NCI five-dose assay; assay type: cell-based; conditions: Homo sapiens
[8] = test system: CAKI-1 (renal cancer); assay: NCI five-dose assay; assay type: cell-based; conditions: Homo sapiens, CAKI-1, CAKI-1, renal cancer
[9] = test system: 60 cancer cell lines; assay: cells; conditions: Homo sapiens
[10] = test system: SF-539 (CNS cancer); assay: NCI five-dose assay; assay type: cell-based; conditions: Homo sapiens, SF-539, SF-539, CNS cancer
[11] = test system: SK-MEL-5 (melanoma); assay: NCI five-dose assay; assay type: cell-based, human; conditions: for GI50: Homo sapiens, SK-MEL-5, SK-MEL-5, melanoma
[12] = test system: SK-MEL-28 (melanoma); assay: NCI five-dose assay; assay type: cell-based; conditions: Homo sapiens, SK-MEL-28, SK-MEL-28, melanoma
[13] = test system: SK-OV-3 (ovarian cancer); assay: NCI five-dose assay; assay type: cell-based; conditions: Homo sapiens, SK-OV-3, SK-OV-3, ovarian cancer
[14] = test system: SR (leukemia); assay: NCI five-dose assay; assay type: cell-based; conditions: Homo sapiens
[15] = test system: OVCAR-3 (ovarian cancer); assay: NCI five-dose assay; assay type: cell-based; conditions: Homo sapiens, OVCAR-3, OVCAR-3, ovarian cancer
[16] = test system: ACHN (renal cancer); assay: NCI five-dose assay; assay type: cell-based; conditions: Homo sapiens
[17] = test system: HOP-62 (NSCL cancer); assay: NCI five-dose assay; assay type: cell-based; conditions: Homo sapiens, HOP-62, HOP-62, NSCL cancer
[18] = test system: NCI-H322M (NSCL cancer); assay: NCI five-dose assay; assay type: cell-based; conditions: Homo sapiens
[19] = test system: MOLT-4 (leukemia); assay: NCI five-dose assay; assay type: cell-based; conditions: Homo sapiens, MOLT-4, MOLT-4, leukemia
[20] = test system: UO-31 (renal cancer); assay: NCI five-dose assay; assay type: cell-based; conditions: Homo sapiens, UO-31, UO-31, renal cancer
[21] = test system: KM12 (colon cancer); assay: NCI five-dose assay; assay type: cell-based; conditions: Homo sapiens
[22] = test system: DU-145 (prostate cancer); assay: NCI five-dose assay; assay type: cell-based; conditions: Homo sapiens, DU-145, DU-145, prostate cancer
[23] = test system: HOP-92 (NSCL cancer); assay: NCI five-dose assay; assay type: cell-based; conditions: Homo sapiens, HOP-92, HOP-92, NSCL cancer
[24] = test system: RPMI-8226 (leukemia); assay: NCI five-dose assay; assay type: cell-based; conditions: Homo sapiens, RPMI-8226, RPMI-8226, leukemia
[25] = test system: OVCAR-4 (ovarian cancer); assay: NCI five-dose assay; assay type: cell-based; conditions: Homo sapiens, OVCAR-4, OVCAR-4, ovarian cancer
[26] = test system: OVCAR-8 (ovarian cancer); assay: NCI five-dose assay; assay type: cell-based; conditions: Homo sapiens, OVCAR-8, OVCAR-8, ovarian cancer
[27] = test system: A498 (renal cancer); assay: NCI five-dose assay; assay type: cell-based; conditions: Homo sapiens
[28] = test system: NCI/ADR-RES (breast cancer); assay: NCI five-dose assay; assay type: cell-based; conditions: Homo sapiens
[29] = test system: U251 (CNS cancer); assay: NCI five-dose assay; assay type: cell-based; conditions: Homo sapiens, U-251, U251, CNS cancer
[30] = test system: NCI-H460 (NSCL cancer); assay: NCI five-dose assay; assay type: cell-based; conditions: Homo sapiens
[31] = test system: SF-268 (CNS cancer); assay: NCI five-dose assay; assay type: cell-based; conditions: Homo sapiens, SF-268, SF-268, CNS cancer
[32] = test system: HCT-116 (colon cancer); assay: NCI five-dose assay; assay type: cell-based; conditions: Homo sapiens, HCT-116, HCT-116, colon cancer
[33] = test system: K-562 (leukemia); assay: NCI five-dose assay; assay type: cell-based; conditions: Homo sapiens, K562, K-562, leukemia
[34] = test system: SNB-19 (CNS cancer); assay: NCI five-dose assay; assay type: cell-based; conditions: Homo sapiens, SNB-19, SNB-19, CNS cancer
[35] = test system: TK-10 (renal cancer); assay: NCI five-dose assay; assay type: cell-based; conditions: Homo sapiens, TK-10, TK-10, renal cancer
[36] = test system: UACC-257 (melanoma); assay: NCI five-dose assay; assay type: cell-based, human; conditions: for GI50: Homo sapiens, UACC-257, UACC-257, melanoma
[37] = test system: NCI-H226 (NSCL cancer); assay: NCI five-dose assay; assay type: cell-based; conditions: Homo sapiens
[38] = test system: UACC-62 (melanoma); assay: NCI five-dose assay; assay type: cell-based; conditions: Homo sapiens, UACC-62, UACC-62, melanoma
[39] = read-out: GI50 MG_MID, over the cell line panel
[40] = read-out: GI50 Range (min – max), over the cell line panel
[41] = read-out: LC50 MG_MID, over the cell line panel
[42] = read-out: LC50 Range (min – max), over the cell line panel

Question: What does the source list for `COc1ccc(C2C3=C(Sc4[nH]c(=O)sc42)C(=O)c2ccccc2C3=O)cc1OC` (centres unmarked) [Compound 4f, 11-(3,4-Dimethoxyphenyl)-3,11-dihydro-2H-benzo[6,7]thiochromeno[2,3-d][1,3]thiazole-2,5,10-trione]?
Answer: GI50 [1]: 3.35 µM; GI50 [2]: 2.27 µM; GI50 [3]: 3.15 µM; GI50 [4]: 15.2 µM; GI50 [5]: 3.42 µM; GI50 [6]: 7.91 µM; GI50 [7]: 4.97 µM; GI50 [8]: 11.2 µM; GI50 [9, 39]: 4.19 µM; GI50 [9, 40]: 1.26 to 17.7 µM; CC50 [9, 41]: 47.9 µM; CC50 [9, 42]: 5.34 to 93 µM; GI50 [10]: 3.17 µM; GI50 [11]: 1.52 µM; TGI of the most sensitive cell line ([11]; SK-MEL-5 /melanoma/): 1.52 / 2.85 μM; GI50 [12]: 6.22 µM; GI50 [13]: 13.6 µM; GI50 [14]: 3.96 µM; GI50 [15]: 3.01 µM; GI50 [16]: 9.24 µM; GI50 [17]: 5.87 µM; GI50 [18]: 3.78 µM; GI50 [19]: 3.88 µM; GI50 [20]: 10.8 µM; GI50 [21]: 5.99 µM; GI50 [22]: 1.68 µM; GI50 [23]: 5.26 µM; GI50 [24]: 4.64 µM; GI50 [25]: 2.48 µM; GI50 [26]: 4.02 µM; GI50 [27]: 4.91 µM; GI50 [28]: 7.07 µM; GI50 [29]: 4.27 µM; GI50 [30]: 2.18 µM; GI50 [31]: 4.89 µM; GI50 [32]: 3.47 µM; GI50 [33]: 4.97 µM; GI50 [34]: 4.49 µM; GI50 [35]: 17.6 µM; GI50 [36]: 6.13 µM; GI50 [37]: 5.43 µM; GI50 [38]: 2.21 µM

Question: Which results are given for `COc1cc(C2C3=C(Sc4[nH]c(=O)sc42)C(=O)c2ccccc2C3=O)ccc1O` (centres unmarked) [Compound 4i, 11-(4-Hydroxy-3-methoxyphenyl)-3,11-dihydro-2H-benzo[6,7]thiochromeno[2,3-d]-[1,3]thiazole-2,5,10-trione]?
Answer: GI50 [1]: 2.48 µM; GI50 [2]: 2.52 µM; GI50 [3]: 2.35 µM; GI50 ([3]; repeated testing): 2.02 µM; GI50 [4]: 2.6 µM; GI50 ([4]; repeated testing): 5.2 µM; GI50 [5]: 2.56 µM; GI50 [6]: 1.96 µM; GI50 ([6]; repeated testing): 2.12 µM; GI50 [7]: 3.24 µM; GI50 ([7]; repeated testing): 4.03 µM; GI50 [8]: 1.5 µM; GI50 ([8]; repeated testing): 2.92 µM; GI50 [9, 39]: 1.95 µM; GI50 ([9]; read-out: GI50 MG_MID, over the cell line panel, repeated testing): 1.7 µM; GI50 [9, 40]: 0.16 to 41.4 µM; GI50 ([9]; read-out: GI50 Range (min – max), over the cell line panel, repeated testing): 0.22 to 5.72 µM; CC50 [9, 41]: 42.7 µM; CC50 ([9]; read-out: LC50 MG_MID, over the cell line panel, repeated testing): 38 µM; CC50 [9, 42]: 4.14 to 92.4 µM; CC50 ([9]; read-out: LC50 Range (min – max), over the cell line panel, repeated testing): 4.93 to 86.6 µM; GI50 [10]: 3.26 µM; GI50 ([10]; repeated testing): 3.46 µM; GI50 [11]: 0.96 µM; GI50 ([11]; repeated testing): 0.48 µM; GI50 [12]: 1.79 µM; GI50 ([12]; repeated testing): 1.41 µM; GI50 [13]: 8.28 µM; GI50 ([13]; repeated testing): 5.72 µM; GI50 [14]: 41.4 µM; GI50 ([14]; repeated testing): 1.96 µM; GI50 [15]: 1.03 µM; GI50 ([15]; repeated testing): 0.57 µM; GI50 [16]: 2.95 µM; GI50 ([16]; repeated testing): 1.66 µM; GI50 [17]: 0.4 µM; GI50 ([17]; repeated testing): 3.6 µM; GI50 [18]: 2.05 µM; GI50 ([18]; repeated testing): 1.86 µM; GI50 [19]: 2.77 µM; GI50 ([19]; repeated testing): 3.67 µM; GI50 [20]: 3.33 µM; GI50 ([20]; repeated testing): 0.57 µM; GI50 [21]: 2.25 µM; GI50 ([21]; repeated testing): 2.51 µM; GI50 [22]: 0.51 µM; GI50 ([22]; repeated testing): 0.93 µM; GI50 [23]: 1.44 µM; GI50 ([23]; repeated testing): 2.15 µM; GI50 [24]: 1.93 µM; GI50 ([24]; repeated testing): 1.33 µM; GI50 [25]: 2.19 µM; GI50 ([25]; repeated testing): 1.33 µM; GI50 [26]: 2.85 µM; GI50 ([26]; repeated testing): 2.05 µM; GI50 [27]: 1.95 µM; GI50 ([27]; repeated testing): 2.11 µM; GI50 [28]: 8.39 µM; GI50 ([28]; repeated testing): 4.5 µM; GI50 [29]: 1.63 µM; GI50 ([29]; repeated testing): 2.21 µM; GI50 [30]: 1.92 µM; GI50 ([30]; repeated testing): 1.66 µM; GI50 [31]: 2.53 µM; GI50 ([31]; repeated testing): 3.3 µM; GI50 [32]: 3.36 µM; GI50 ([32]; repeated testing): 2.46 µM; GI50 ([33]; repeated testing): 1.98 µM; GI50 ([33]; result printed as symbol): > 100 µM; GI50 [34]: 2.41 µM; GI50 ([34]; repeated testing): 2.85 µM; GI50 [35]: 5.74 µM; GI50 ([35]; repeated testing): 2.16 µM; GI50 [36]: 1.31 µM; GI50 ([36]; repeated testing): 0.22 µM; TGI of the most sensitive cell line ([36]; UACC-257 /melanoma/, repeated testing): (0.22 / 1.82) μM; GI50 [37]: 1.74 µM; GI50 ([37]; repeated testing): 2.85 µM; GI50 [38]: 0.43 µM; GI50 ([38]; repeated testing): 1.59 µM

Reference: article PMC3700073, “Synthesis and Biological Activity of New Thiopyrano[2,3-d]thiazoles Containing a Naphthoquinone Moiety” (Scientia Pharmaceutica, 2013)
